Results published in US20070186301A1, “Mutant BDNF gene introducing knockin mouse” (NATIONAL INSTITUTE OF ADVANCED INDUSTRIAL SCIENCE AND …, priority 2006, published 2007).
Entries after “also recorded” stand apart in the source; their conditions may differ.

B1: BDNF-ML: non-cleavable human proBDNF derivative protein with R125M and R127L, SEQ ID NO:2 (protein)
chain: MTILFLTMVISYFGCMKAAPMKEANIRGQGGLAYPGVRTHGTLESVNGPKAGSRGLTSLADTFEHVIEELLDEDQKVRPNEENNKDADLYTSRVMLSSQVPLEPPLLFLLEEYKNYLDAANMSMMVLRHSDPARRGELSVCDSISEWVTAADKKTAVDMSGGTVTVLEKVPVSKGQLKQYFYETKCNPMGYTKEGCRGIDKRHWNSQCRTTQSYVRALTMDSKKRIGWRFIRIDTSCVCTLTIKRGR
modifications: Non-cleavable human proBDNF mutant

Key:
[1] = system: mutant BDNF gene-knockin mice; assay: Open field (circular field) quantity of activity after etizolam, mutant mice; type: in vivo, mouse; details: mutant mice aged 4 to 5 weeks; etizolam solution 0.5 mg/kg intraperitoneally; measured from 5 minutes after administration; p<0.001
Protocol: (§1) The abnormal behavior in the mutant BDNF gene-knockin mouse was quantitatively analyzed. An emotional change of the mouse is reflected to the quantity of activity and a behavioral pattern of the mouse when the mouse is placed in a novel environment. The mouse was placed in the novel environment which was an inexperienced circular field (a diameter of 50 cm and a wall height of 40 cm in the field) for 25 to 30 minutes, and the quantity of activity in the meantime was compared between the wild type homozygous mice (wild) and the knockin homozygous mice (mutants). The mouse was placed 30 minutes before the experiment in a room in which the circular field had been disposed, and placed calmly in the circular field using a paper box. The activity of the mouse in the circular field was measured by recording using DV-Track video tracking system supplied from Muromachi Kikai.
(§2) Etizolam is a short term action type GABA, a neurotransmission accelerator (reference: Elder C. A. et al.: Drug Metab. Dispos., vol. 23, 776, 1995). […] A protocol was comprising (I) measuring the total quantity of activity in the mouse for 30 minutes after being placed in the open field, (II) intraperitoneally administering PBS or the etizolam solution (0.5 mg/kg) and (III) returning the mouse in the open field after 5 minutes and measuring the quantity of activity for 30 minutes in the mouse. […]

[2] = system: wild type mice; assay: Open field (circular field) quantity of activity after etizolam, wild type mice; type: in vivo, mouse; details: wild type mice aged 4 to 5 weeks; etizolam solution 0.5 mg/kg intraperitoneally; measured from 5 minutes after administration; p<0.05
Protocol: as §1, §2

[3] = system: cerebellar granular nerve cells; assay: Harmful action of non-cleavable proBDNF derivative on cerebellar granular nerve cells; type: cell-based
[4] = system: cholinergic nerve cells; assay: Harmful action of non-cleavable proBDNF derivative on cholinergic nerve cells; type: cell-based

Row | Molecule | effect on abnormal behavior (total behavioral distance / quantity of activity for 30 minutes in the open field) [1] | effect on quantity of activity for 30 minutes in the open field [2] | action on cell death of cerebellar granular nerve cells [3] | action on fibers in cholinergic nerve cells [4]
1 | CCc1cc2c(s1)-n1c(C)nnc1CN=C2c1ccccc1Cl [etizolam] | inhibitory effect; also recorded: remarkably inhibited | certainly effective | – | –
2 | B1 | – | – | facilitation of cell death | facilitation of dropout of fibers
